This is an account of results in patent US20080181957A1, “INCREASED AMORPHOUS STABILITY OF POORLY WATER SOLUBLE DRUGS BY NANOSIZING” (priority 2006, published 2008).

Holding throughout (format): physicochemical
The nature of one data set: Water solubility. As to conditions: 25 °C. On the procedure: “Water solubility” means a measure of the maximum possible concentration of a drug dissolved in water. The water temperature may be specified; in an embodiment water solubility is determined at 25 Deg. C. Units of measurement of water solubility are typically mass/volume, such as mg/ml. […] C.; preferably less than or equal to about 0.1 mg/ml at 25 Deg. […] C.

Data set [1] can be described thus: DSC amorphous stability (recrystallization) on storage at 25 Deg C. As to conditions: FIG. 3; for crystallinity: DSC. On the procedure:
The amorphous state of the amorphous drug core is determined by subjecting a population of nanoparticles that comprise one or more nanoparticles that comprise the recited amorphous drug core to differential scanning calorimetry (DSC). In an embodiment, a DSC method according to the invention used a Perkin-Elmer DSC-7 or a Diamond DSC calorimeter applied for the measurement of specific transition temperatures of tested samples. Thus, the glass transition (Tg), melting (Tm) and crystallization (Tc) temperatures were measured for each sample, according to the PN-EN ISO 11357-1:2002 (ISO 11357-1:1997), ISO 11357-2:1999 and ISO 11357-3:1999 standards, at the rate of temperature change of 10 Deg C./min. The instrument was calibrated using indium, tin and zinc certified reference materials (CRMs)
The amorphous state of the amorphous drug core, as measured by DSC is expressed as a weight fraction of the weight of amorphous material in the amorphous drug core to the total weight of the amorphous drug core, expressed as an average value across the population of nanoparticles being measured. For instance, if a population of nanoparticles was measured using DSC, and the amorphous state was determined to be a particular value for the population, that value would be considered the average amorphous state for each nanoparticle within the population. An inventive amorphous drug core may contain a small amount of crystalline drug.
“Amorphous stability” means a measure of how much a material changes in its structure from being amorphous to being crystalline under defined conditions and a set timeframe. […] For instance, an amorphous material that is initially 98% w/w amorphous is considered amorphously stable according to the invention if, at the end of 6 months testing at 25 degree C., the material is at least 88% w/w amorphous. The amorphous state of a material according to the invention is determined using a DSC method as detailed above and elsewhere herein.

Data set [2] can be described thus: XRD amorphous stability of dried samples on storage. As to conditions: storage 3 month and 1 year, nanosized sample dried by lyophilization, FIGS. 1 and 2.

As a reminder, the solubility is the dissolved amount per volume that the medium holds. Low values mean a poorly soluble substance, high ones a readily soluble substance. With `O=C(NN1CCCCC1)c1nn(-c2ccc(Cl)cc2Cl)c2c1CCC/C2=C\c1ccc(F)cc1` [COMPOUND 1], in the data set “Water solubility”, the solubility is no more than 0.2 ng/mL.
Take `O=C(NN1CCCCC1)c1nn(-c2ccc(Cl)cc2Cl)c2c1CCC/C2=C\c1ccc(F)cc1` [bulk amorphous COMPOUND 1]: the crystallinity in data set [1] (4 month time point) is recorded as 0.44%; in data set [1] (5 month time point), 1.39%; in data set [1] (6 month time point), 10.54%. Besides, the “storage time after which recrystallization was detectable by DSC” value in data set [1] (storage at 25 Deg C) is 4 month. Moreover, the XRD amorphous stability result in data set [2] was “XRD amorphous stability can be achieved up to 1 year”.
